According to patent publication US20240309014A1, “MACROCYCLIC COMPOUNDS AND USES THEREOF” (President and Fellows of Harvard College, priority 2017, published 2024):

How the values were obtained:
[1] = tested on: FaDu-Luc subcutaneous xenograft; assay: FaDu s.c. xenograft model in combination with radiation; format: in vivo, nude mice
Procedure: Luciferase-transduced FaDu-Luc cells were established by retrovirus-mediated gene transfer. […]. Then, helper-free recombinant retroviruses were produced by transfecting the above retroviral expression vector together with pGP and pE-Ampho plasmids (Takara Bio; Shiga, Japan), into 293T cells (ATCC; Manassas, USA). Next, FaDu cells were infected with the recombinant retroviruses, and were cultured for two weeks in the presence of puromycin (2 μg/mL). The infected cells were selected from a polyclonal proliferative population of the culture.
A luciferase-transduced human SCCHN cell line FaDu-Luc, which had been cultured in an RPMI-1640 medium containing 10% FBS, and penicillin and streptomycin, was adjusted to a concentration of 5×10^7 cells/mL with Hank's Balanced Salt Solution to prepare a cell suspension. […] Thirteen days after the cell inoculation, the tumor volume was analyzed using bioluminescence signal from FaDu-Luc cells. […] The bioluminescence signal was monitored using the IVIS […] series (PerkinElmer, Waltham, MA), consisting of a highly sensitive, cooled chargecoupled device camera. […] Data were analyzed using total photon flux emission (photons/second) in the ROIs. The total photon flux emission was calculated in accordance with the following calculation formulae: […]

U2OS-EB3-AG cells = assay: Antiproliferative activity in U2OS-EB3-AG cells; format: cell-based
[2] = tested on: α-SMA-positive CAFs in FaDu tumor; assay: Effect on α-SMA-positive CAFs in the FaDu subcutaneous model (FIG. 14); format: in vivo, nude mice
Procedure: A human squamous cell carcinoma of the head and neck (SCCHN) cell line FaDu, which had been cultured in an RPMI-1640 medium containing 10% FBS, and penicillin-streptomycin (culture medium), was adjusted to a concentration of 5×10^7 cells/mL with culture medium to prepare a cell suspension. The cell suspension was inoculated in a volume of 100 μL into a subcutaneous part of a right flank of nude mice, 6 weeks of ages (CAnN.Cg-Foxnlnu/CrlCrlj, female, Charles River Laboratories Japan, Inc.). Ten days after cell inoculation, the mice were grouped such that averages of the tumor volumes were substantially equal among the groups. The experiment was conducted on groups each consisting of 5 mice. Each test compound was dissolved in DMSO and a solution was stored in the freezer before use. Immediately before the administration, the stock solution was diluted with saline. The test compound in saline was intravenously administered at 20 μg/kg, 60 μg/kg, or 180 μg/kg. […] The area of α-SMA-positive region in the whole tumor was quantified by counting the α-SMA-positive objects using inform 2 software (PerkinElmer Inc.) Area of the tumor region was measured by assessing the hematoxylin-staining area using inform 2 software (PerkinElmer Inc.). […] A suppression rate of the α-SMA- positive area of the test compound-dosing group was calculated with the below formula: […]

[3] = tested on: human duodenal cell line HuTu 80 xenograft; assay: HuTu 80 xenograft model as monotherapy (FIG. 23); format: in vivo, nude mice
Procedure: A human duodenal cell line HuTu 80, which had been cultured in a EMEM containing 10% FBS, and penicillin-streptomycin, was adjusted to a concentration of 3×10^7 cells/mL in PBS to prepare a cell suspension. The cell suspension was inoculated in a volume of 100 μL into a subcutaneous part of a right flank of nude mice, 7 weeks of ages (CAnN.Cg-Foxnlnu/CrlCrlj, female, Charles River Laboratories Japan Inc.). Seven days after cell inoculation (Day 1), the shortest diameter and the longest diameter of a tumor in each mouse were measured by using an electronic digital caliper (Digimatic™ caliper, Mitutoyo Corporation), so as to calculate the volume of the tumor in accordance with the following calculation formulae: […]
On the basis of the volumes of tumors obtained on Day 1, the mice were grouped such that averages of the tumor volumes were substantially equal among the groups. The experiment was conducted on groups each consisting of six mice. Compound (1) was dissolved in DMSO and a solution was stored in the freezer before use. Immediately before the administration, the stock solution was diluted with saline. The test compound in saline was intravenously once-weekly administered at 45, 90, or 180 μg/kg for 2 weeks (on Day 1 and Day 8).

C=C1C[C@@H]2CC[C@@]34C[C@H]5O[C@H]6[C@@H](O3)[C@H]3O[C@H](CC[C@@H]3O[C@H]6C5O4)CC(=O)O[C@@H]3[C@@H](C)[C@@H]4O[C@@H]5C[C@]6(C[C@@H]7O[C@]8(C[C@H](C)[C@@H]9O[C@H](CN)[C@H](O)C[C@@H]9O8)C[C@H](C)[C@@H]7O6)O[C@@H]5C[C@@H]4O[C@H]3C[C@H]3O[C@@H](CC[C@@H]1O2)C[C@@H](C)C3=C (stereo in doubt) [Compound (1)]
Tumor Regression (%) ([1]; 0.09 mg/kg i.v. day 1 and 8 + radiation 18 Gy day 4 and 11): 97% | Tumor Regression (%) ([1]; 0.09 mg/kg i.v. day 1 and 8, without radiation): 0% | IC50 (U2OS-EB3-AG cells): 500 pM | α-SMA positive area ([2]; single i.v. dose of 180 μg/kg, Day 6): significantly reduced the α-SMA positive area | α-SMA positive area ([2]; single i.v. dose of 60 and 180 μg/kg, Day 3): significantly reduced the α-SMA positive area | Tumor Regression (%) ([3]; 0.18 mg/kg i.v. Day 1 and Day 8): 99% | antitumor effect ([3]; 180 μg/kg i.v. Day 1 and Day 8): tumor regression | antitumor effect ([3]; 45 and 90 μg/kg i.v. Day 1 and Day 8): tumor growth delay
